Results published in article PMC2880193 (Archives of biochemistry and biophysics, 2010).

Target: T1, Put1p (Put1pΔ18) (Saccharomyces cerevisiae, UniProt P09368)
T1 sequence (P09368 19-476): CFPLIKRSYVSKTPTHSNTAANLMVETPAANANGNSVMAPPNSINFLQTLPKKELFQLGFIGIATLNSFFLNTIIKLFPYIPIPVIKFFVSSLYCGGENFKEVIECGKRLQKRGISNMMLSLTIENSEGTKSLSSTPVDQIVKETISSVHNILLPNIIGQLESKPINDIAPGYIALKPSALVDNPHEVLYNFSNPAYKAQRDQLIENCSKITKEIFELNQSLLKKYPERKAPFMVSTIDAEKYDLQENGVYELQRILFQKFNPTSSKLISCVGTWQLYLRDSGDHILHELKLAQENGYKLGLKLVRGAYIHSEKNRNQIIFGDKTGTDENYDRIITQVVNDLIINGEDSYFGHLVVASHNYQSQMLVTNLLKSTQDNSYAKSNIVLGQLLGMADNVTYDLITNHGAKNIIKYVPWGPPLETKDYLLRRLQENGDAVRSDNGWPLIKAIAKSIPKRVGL
Assay: proline:DCPIP assay, Lineweaver-Burk plot
Type: biochemical

- Ki: 5.3 mM
SMILES: O=C(O)[C@@H]1CCCO1 [L-THFA]
